Results reported in patent publication US6569878B1, “Substituted 4-amino-thiazol-2-yl compounds as cyclin-dependent kinase inhibitors” (Agouron Pharmaceuticals Inc., priority 1997, dated 2003).

Tests used:
[1] = target: T1, complex of human CDK4 and cyclin D3 (Homo sapiens, UniProt P11802); experiment: Inhibition of CDK4/cyclin D retinoblastoma kinase activity (D-type cyclin is D3); type: biochemical; details: superscript a: D-type cyclin is D3; apparent Ki; read-out: Ki CDK 4/D
T1 construct: made in house; host or cells: insect cells, co-infected with baculovirus
How it was run: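 Apparent Ki derived by fitting background-corrected activity to competitive (or, for tight binders, competitive tight-binding) equations with measured ATP Km. Rb phosphorylation by radiolabelled ATP was measured at 30°C, 20 min standard or 60 min at 5 nM complex for tight binders, via nitrocellulose capture and phosphorimager.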

CDK2/cyclin A = target: T2, CDK2/cyclin A (Homo sapiens, UniProt P24941); experiment: Inhibition of CDK2/cyclin A retinoblastoma kinase activity; type: biochemical; details: read-out: Ki CDK 2/A
T2 construct: made in house; host or cells: CDK2: insect cells (baculovirus); cyclin A: E. coli, then limited proteolysis
How it was run: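 Baculovirus-expressed CDK2 with excess proteolyzed cyclin A (or purified complex), 150 nM or 5 nM, phosphorylating an Rb fragment with 25 μM [32/33P]ATP, pH 7.4, 30° C, 20 min. Filter-captured radioactivity by phosphorimager; apparent Ki from fits to competitive or tight-binding competitive inhibition using measured ATP Km.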

[2] = target: T3, human CDK1 (cdc2) and cyclin B (Homo sapiens, UniProt P06493); experiment: Inhibition of CDK1(cdc2)/cyclin B histone H1 kinase activity; type: biochemical; details: read-out: Ki CDK 1/B
T3 construct: purchased New England Biolabs (Beverly Mass.)
Description: Cyclin-dependent kinase activity was measured by quantifying the enzyme-catalyzed, time-dependent incorporation of radioactive phosphate from [^32P]ATP or [^33P]ATP into a protein substrate. Unless noted otherwise, assays were performed in 96-well plates in a total volume of 50 μL, in the presence of 10 mM HEPES (N-[2-hydroxyethyl]piperazine-N′-[2-ethanesulfonic acid]) (pH 7.4), 10 mM MgCl2, 25 μM adenosine triphosphate (ATP), 1 mg/mL ovalbumin, 5 μg/mL leupeptin, 1 mM dithiothreitol, 10 mM β-glycerophosphate, 0.1 mM sodium vanadate, 1 mM sodium fluoride, 2.5 mM ethylene glycol-bis(β-aminoethyl ether)-N,N,N′N′-tetraacetic acid (EGTA), 2% (v/v) dimethylsulfoxide, and 0.03-0.4 μCi [^32/33P]ATP per reaction. Reactions were initiated with enzyme, incubated at 30° C., and terminated after 20 minutes by the addition of ethylenediaminetetraacetic acid (EDTA) to 250 mM. The phosphorylated substrate was then captured on a nitrocellulose or phosphocellulose membrane using a 96-well filtration manifold, and unincorporated radioactivity was removed by repeated washing with 0.85% phosphoric acid. Radioactivity was quantified by exposing the dried membranes to a phosphorimager.
Apparent Ki values were measured by assaying enzyme activity in the presence of different inhibitor compound concentrations and subtracting the background radioactivity measured in the absence of enzyme. The kinetic parameters (kcat, Km for ATP) were measured for each enzyme under the usual assay conditions by determining the dependence of initial rates on ATP concentration. Inhibition data were fit to an equation for competitive inhibition using Kaleidagraph (Synergy Software), or were fit to an equation for competitive tight-binding inhibition using the software KineTic (BioKin, Ltd.).
The complex of human CDK1 (cdc2) and cyclin B was purchased from New England Biolabs (Beverly Mass.). Alternatively, a CDK1/glutathione-S-transferase-cyclin B1 complex was purified using glutathione affinity chromatography from insect cells that had been co-infected with the corresponding baculovirus expression vectors. The assay was executed as described above at 30° C. using 2.5 units of cdc2/cyclin B, 10 μg Histone H1 protein, and 0.1-0.3 μCi [^32/33P]ATP per assay. Phosphorylated histone substrate was captured by microfiltration on a phosphocellulose P81 membrane and quantified using a phosphorimager as described above. Ki values were measured using the described curve-fitting programs.

HCT116 = experiment: Inhibition of cell growth, MTT assay, HCT116; type: cell-based, human; details: for IC50 / IC90: Homo sapiens, HCT-116
Description: (§1) The water-insoluble purple formazan product was then detected spectrophotometrically. […] Plates were incubated for four hours before addition of inhibitor compounds. Different concentrations of inhibitor compounds were added in 0.5% (v/v) dimethylsulfoxide (15 μL/well), and cells were incubated at 37° C. (5% CO2) for four to six days (depending on cell type). At the end of the incubation, MTT was added to a final concentration of 0.2 mg/mL, and cells were incubated for 4 hours more at 37° C. After centrifugation of the plates and removal of medium, the absorbance of the formazan (solubilized in dimethylsulfoxide) was measured at 540 nm.

U2-OS = experiment: Inhibition of cell growth, MTT assay, U2-OS; type: cell-based; details: for IC50 / IC90: Homo sapiens, U2OS; for % inhibition of growth in parentheses after >25: concentration not given
Description: as §1

Saos-2 = experiment: Inhibition of cell growth, MTT assay, Saos-2; type: cell-based; details: Saos-2, MTT assay; for IC50 / IC90: Homo sapiens
Description: as §1

T1 sequence (P11802 whole entry): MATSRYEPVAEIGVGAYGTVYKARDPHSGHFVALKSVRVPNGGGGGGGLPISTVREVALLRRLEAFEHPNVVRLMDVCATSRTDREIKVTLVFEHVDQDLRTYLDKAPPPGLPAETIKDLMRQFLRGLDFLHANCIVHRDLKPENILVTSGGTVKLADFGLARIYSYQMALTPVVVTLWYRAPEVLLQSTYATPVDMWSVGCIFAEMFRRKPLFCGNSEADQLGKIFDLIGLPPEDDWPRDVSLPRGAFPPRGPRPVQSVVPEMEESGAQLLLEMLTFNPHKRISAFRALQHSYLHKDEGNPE
T1 sequence (P30281 whole entry partner): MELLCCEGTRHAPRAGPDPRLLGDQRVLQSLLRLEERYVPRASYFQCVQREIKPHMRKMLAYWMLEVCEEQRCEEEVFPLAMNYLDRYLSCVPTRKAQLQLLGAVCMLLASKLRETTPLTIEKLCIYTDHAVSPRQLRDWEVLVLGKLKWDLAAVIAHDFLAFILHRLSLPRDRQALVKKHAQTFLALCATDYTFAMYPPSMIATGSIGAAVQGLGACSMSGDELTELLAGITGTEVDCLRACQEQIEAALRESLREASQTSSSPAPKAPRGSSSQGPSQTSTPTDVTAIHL
T3 sequence (P06493 whole entry): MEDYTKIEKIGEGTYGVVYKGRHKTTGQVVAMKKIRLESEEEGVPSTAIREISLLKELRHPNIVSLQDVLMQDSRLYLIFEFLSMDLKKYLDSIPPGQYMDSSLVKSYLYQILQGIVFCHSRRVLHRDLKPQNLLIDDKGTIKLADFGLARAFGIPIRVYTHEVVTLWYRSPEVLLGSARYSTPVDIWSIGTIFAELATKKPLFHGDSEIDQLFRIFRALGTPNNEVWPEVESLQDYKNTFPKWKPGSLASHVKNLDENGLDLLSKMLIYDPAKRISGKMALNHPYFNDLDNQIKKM
T3 sequence (P14635 whole entry partner): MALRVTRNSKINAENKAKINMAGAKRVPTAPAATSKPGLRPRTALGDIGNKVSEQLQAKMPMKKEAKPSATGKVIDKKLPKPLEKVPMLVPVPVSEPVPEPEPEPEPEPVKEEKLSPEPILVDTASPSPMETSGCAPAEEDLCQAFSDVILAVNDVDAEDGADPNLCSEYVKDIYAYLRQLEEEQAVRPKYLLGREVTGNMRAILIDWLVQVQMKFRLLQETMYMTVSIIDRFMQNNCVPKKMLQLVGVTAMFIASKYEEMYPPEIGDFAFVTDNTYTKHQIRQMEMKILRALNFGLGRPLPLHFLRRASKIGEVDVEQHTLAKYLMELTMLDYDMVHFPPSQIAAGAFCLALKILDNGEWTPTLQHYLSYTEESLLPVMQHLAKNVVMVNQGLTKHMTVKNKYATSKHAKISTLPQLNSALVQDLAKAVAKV

| SMILES | Ki [1] [µM] | Ki (CDK2/cyclin A) [µM] | Ki [2] [µM] | IC50 (HCT116) [µM] | IC90 (HCT116) [µM] | % inhibition of growth in parentheses after >25 (HCT116; concentration not given) | IC50 (U2-OS) [µM] | IC90 (U2-OS) [µM] | IC50 (Saos-2) [µM] | IC90 (Saos-2) [µM] | % inhibition of growth in parentheses after >25 (U2-OS) | % inhibition of growth in parentheses after >25 (Saos-2; concentration not given) [%] |
| --- | --- | --- | --- | --- | --- | --- | --- | --- | --- | --- | --- | --- |
| CN1CCN(c2ccc(Nc3nc(N)c(C(=O)c4c(Cl)cc(Br)c(N)c4Cl)s3)cc2)CC1 [C(96), (3-Amino-4-bromo-2,6-dichloro-phenyl)-{4-amino-2-[4-(4-methyl-piperazin-1-yl)-phenylamino]-thiazol-5-yl}-methanone] | 0.0015 | 0.324 | 0.231 | 18 | > 25 | (82%) | 8 | 12 | 4.2 | 10 |  |  |
| Nc1nc(Nc2ccc(N3CCNC(=O)C3)cc2)sc1C(=O)c1c(F)cccc1F [C(120), 4-{4-[4-Amino-5-(2,6-difluoro-benzoyl)-thiazol-2-ylamino]-phenyl}-piperazin-2-one] | 0.0109 | 0.08 | 0.062 | 3.5 | 6 |  | 5.7 | 11 | 2.6 | 5.2 |  |  |
| NC(=O)c1ccc(Nc2nc(N)c(C(=O)c3c(F)cccc3F)s2)cc1 [C(102), 4-[4-Amino-5-(2,6-difluoro-benzoyl)-thiazol-2-ylamino]-benzamide] | 0.021 | 0.049 | 0.017 | 1.1 | 2.4 |  | 3.1 | 5.4 | 0.88 | 2.2 |  |  |
| Nc1nc(Nc2ccc(N3CCOCC3)cc2)sc1C(=O)c1c(Cl)cccc1Cl [C(55), [4-Amino-2-(4-morpholin-4-yl-phenylamino)-thiazol-5-yl]-(2,6-dichloro-phenyl)-methanone] | 0.0085 | 0.493 | 0.504 | 4.3 | 17 |  | 18 | > 25 | 17 | > 25 | (74%) | 69 |
| CC(=O)c1ccc(Nc2nc(N)c(C(=O)c3ccccc3[N+](=O)[O-])s2)cc1 [C(24), 1-{4-[4-Amino-5-(2-nitro-benzoyl)-thiazol-2-ylamino]-phenyl}-ethanone] | 0.008 | 0.248 | 0.046 | 0.7 | 1.5 |  | 1.9 | 3 | 1.4 | 2.8 |  |  |
| Nc1nc(Nc2ccc3nc[nH]c3c2)sc1C(=O)c1c(Cl)cncc1Cl [C(63), [4-Amino-2-(1H-benzoimidazol-5-yl-amino)-thiazol-5-yl]-(3,5-dichloro-pyridin-4-yl)-methanone] | 0.017 | 0.2 | 0.133 | 12 | 22 |  | 16 | > 25 | 9 | 20 | 84% |  |
| Cc1c(C(=O)c2sc(Nc3ccc(S(N)(=O)=O)cc3)nc2N)sc2ccccc12 [C(49), 4-[4-Amino-5-(3-methyl-benzo[b]thiophene-2-carbonyl)-thiazol-2-ylamino]-benzenesulfonamide] | 0.023 | 0.01 | 0.034 | 5.6 | 12 |  | 14 | 22 | 4 | 20 |  |  |
| CC(=O)N1CCN(c2ccc(Nc3nc(N)c(C(=O)c4sccc4C)s3)cc2)CC1 [C(98), 2-[4-(1-Acetyl-piperazine-4-yl)-phenylamino]-4-amino-thiazol-5-yl-(3-methyl-thiophen-2-yl)-methanone] | 0.027 | 0.565 | 0.72 | 1.3 | 2.9 |  | 2.4 | 5.2 | 2.7 | 5.3 |  |  |
| CNS(=O)(=O)c1ccc(Nc2nc(N)c(C(=O)c3sccc3C)s2)cc1 [C(114), 4-[4-Amino-5-(3-methyl-thiophene-2-carbonyl)-thiazol-2-ylamino]-N-methyl-benzenesulfonamide] | 0.021 | 0.0085 | 0.028 | 1.1 | 2.8 |  | 3 | 5.2 | 1.3 | 4.8 |  |  |
| Cc1cc([N+](=O)[O-])sc1C(=O)c1sc(Nc2ccc(S(N)(=O)=O)cc2)nc1N [C(95), 4-[4-Amino-5-(3-methyl-5-nitro-thiophene-2-carbonyl)-thiazol-2-ylamino]-benzenesulfonamide] | 0.025 | < 0.05 | 0.075 | 1.5 | 3 |  | 3.9 | 5.8 | 1.8 | 4.5 |  |  |
| Nc1nc(Nc2ccc(N3CCSCC3)cc2)sc1C(=O)c1c(F)cccc1F [C(119), [4-Amino-2-(4-thiomorpholin-4-yl-phenylamino)-thiazol-5-yl]-(2,6-difluoro-phenyl)-methanone] | 0.024 | 0.086 | 0.247 | 4 | 7 |  | 7.8 | 12 | 7 | 13 |  |  |
| C[C@@H]1CN(c2ccc(Nc3nc(N)c(C(=O)c4c(F)cccc4F)s3)cc2)C[C@H](C)N1 [J(5), {4-Amino-2-[4-(cis-3,5-dimethyl-piperazin-1-yl)-phenylamino]-thiazol-5-yl}-(2,6-difluoro-phenyl)-methanone] | 0.0063 | 0.331 | 0.76 | 0.7 | 1.6 |  | 1 | 1.8 | 0.9 | 1.5 |  |  |
| CN1CCN(c2ccc(Nc3nc(N)c(C(=O)c4c(Cl)cncc4Cl)s3)cc2)CC1 [C(70), {4-Amino-2-[4-(4-methyl-piperazin-1-yl)-phenylamino]-thiazol-5-yl}-(3,5-dichloro-pyridin-4-yl)-methanone] | 0.0028 | 1.12 | 1.37 | 2.2 | 5.9 |  | 5 | 11 | 5.8 | 12 |  |  |
| Nc1nc(Nc2ccc(N3CCNCC3)cc2)sc1C(=O)c1c(Cl)cc(Cl)cc1Cl [J(1), [4-Amino-2-(4-piperazin-1-yl-phenylamino)-thiazol-5-yl]-(2,4,6-trichloro-phenyl)-methanone] | 0.0023 | 0.452 | 0.732 | 1.3 | 3 |  | 3.5 | 5.9 | 1 | 5.9 |  |  |
| CC(=O)Nc1ccc(Cl)c(C(=O)c2sc(Nc3ccc(N4CCN(C)CC4)cc3)nc2N)c1Cl [C(86), N-(3-{4-Amino-2-[4-(4-methyl-piperazin-1-yl)-phenylamino]-thiazole-5-carbonyl}-2,4-dichloro-phenyl)-acetamide] | 0.015 | 1.1 | 1.31 | 6.5 | 17 |  | 14 | 22 | 12 | 22 |  |  |
